Test results: patent publication US20230278972A1, “SUBSTITUTED HALOALKYL SULFONANILIDE HERBICIDES” (FMC Corporation, priority 2020, published 2023)

Columns and labels:
Type in all cases: in vivo
[1] = tested on: blackgrass (Alopecurus myosuroides); assay: Test A postemergence, blackgrass; details: Postemergence, 0 to 100 scale (0 no effect, 100 complete control)
Procedure, shortened: (§1)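 Greenhouse pot test in a loam–sand blend; compounds delivered in a non-phytotoxic solvent carrying a surfactant, applied either as a directed spray to soil at seeding or over seedlings 2 to 10 cm high with one to two leaves.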

[2] = tested on: pigweed (Amaranthus retroflexus); assay: Test A preemergence, pigweed; details: for Plant response rating, Pigweed: 0 to 100 scale (0 no effect, 100 complete control)
Procedure, shortened: (§2)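 Preemergence: pigweed seeds in loam soil–sand blend received a directed soil spray of test chemicals in a non-phytotoxic solvent with surfactant. Postemergence: barnyardgrass, wheat and galium in pots of the same soil, 2 to 10 cm tall at one- to two-leaf stage, sprayed with the same formulation.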

[3] = tested on: kochia (Bassia scoparia); assay: Test A postemergence, kochia; details: Postemergence, 0 to 100 scale (0 no effect, 100 complete control)
Procedure, shortened: as §1

[4] = tested on: kochia (Bassia scoparia); assay: Test A preemergence, kochia; details: Preemergence; for Plant response rating, Kochia: 0 to 100 scale (0 no effect, 100 complete control)
Procedure, shortened: as §1

[5] = tested on: barnyardgrass (Echinochloa crus-galli); assay: Test A postemergence, barnyardgrass; details: Postemergence, 0 to 100 scale (0 no effect, 100 complete control)
Procedure, shortened: as §2

[6] = tested on: Foxtail, Giant (giant foxtail, Setaria faberi); assay: Test A preemergence, Foxtail, Giant; details: Preemergence; for Plant response rating, Foxtail, Giant: 0 to 100 scale (0 no effect, 100 complete control)
Procedure, shortened: as §1

[7] = tested on: Ryegrass, Italian (Italian ryegrass, Lolium multiflorum); assay: Test A postemergence, Ryegrass, Italian; details: Postemergence, 0 to 100 scale (0 no effect, 100 complete control)
Procedure, shortened: as §1

[8] = tested on: galium (catchweed bedstraw, Galium aparine); assay: Test A postemergence, galium; details: Postemergence, 0 to 100 scale (0 no effect, 100 complete control)
Procedure, shortened: as §2

[9] = tested on: Ryegrass, Italian (Italian ryegrass, Lolium multiflorum); assay: Test A preemergence, Ryegrass, Italian; details: Preemergence; for Plant response rating, Ryegrass, Italian: 0 to 100 scale (0 no effect, 100 complete control)
Procedure, shortened: as §1

[10] = tested on: corn (Zea mays); assay: Test A postemergence, corn; details: Postemergence, 0 to 100 scale (0 no effect, 100 complete control)
Procedure, shortened: as §1

[11] = tested on: wheat (Triticum aestivum); assay: Test A postemergence, wheat; details: Postemergence, 0 to 100 scale (0 no effect, 100 complete control)
Procedure, shortened: as §2

[12] = tested on: ragweed (common ragweed, Ambrosia artemisiifolia); assay: Test A preemergence, ragweed; details: Preemergence; for Plant response rating, Ragweed: 0 to 100 scale (0 no effect, 100 complete control)
Procedure, shortened: as §1

[13] = tested on: Foxtail, Giant (giant foxtail, Setaria faberi); assay: Test A postemergence, Foxtail, Giant; details: Postemergence, 0 to 100 scale (0 no effect, 100 complete control)
Procedure, shortened: as §1

[14] = tested on: ragweed (common ragweed, Ambrosia artemisiifolia); assay: Test A postemergence, ragweed; details: Postemergence, 0 to 100 scale (0 no effect, 100 complete control)
Procedure, shortened: as §1

[15] = tested on: pigweed (Amaranthus retroflexus); assay: Test A postemergence, pigweed; details: Postemergence, 0 to 100 scale (0 no effect, 100 complete control)
Procedure, shortened: as §1

[16] = tested on: barnyardgrass (Echinochloa crus-galli); assay: Test A preemergence, barnyardgrass; details: Preemergence; for Plant response rating, Barnyardgrass: 0 to 100 scale (0 no effect, 100 complete control)
Procedure, shortened: as §1

[17] = 500 g ai/ha, visual injury approx. 10 days
[18] = 125 g ai/ha, visual injury, approx. 10 days
[19] = 500 g ai/ha, visual injury on 0 to 100 scale (0 no effect, 100 complete control), approximately 10 days
[20] = 1000 g ai/ha, visual injury, approx. 10 days

Cc1cc(Cl)c(C(=O)N(C)C)cc1N(S(=O)(=O)C(F)(F)F)S(=O)(=O)C(F)(F)F [Compound 256]
Plant response rating, Blackgrass ([1]; 125 g ai/ha): 0
Plant response rating, Blackgrass [1, 17]: 0
Plant response rating, Pigweed [2, 18]: 100
Pigweed plant response rating [2, 19]: 100
Plant response rating, Kochia ([3]; 125 g ai/ha): 50
Plant response rating, Kochia [3, 17]: 70
Plant response rating, Kochia [4, 18]: 60
Kochia plant response rating [4, 19]: 90
Plant response rating, Barnyardgrass ([5]; 125 g ai/ha): 60
Plant response rating, Barnyardgrass [5, 17]: 50
Plant response rating, Foxtail, Giant [6, 18]: 30
Foxtail, Giant plant response rating [6, 19]: 90
Plant response rating, Ryegrass, Italian ([7]; 125 g ai/ha): 0
Plant response rating, Ryegrass, Italian [7, 17]: 50
Plant response rating, Galium ([8]; 125 g ai/ha): 60
Plant response rating, Galium [8, 17]: 80
Plant response rating, Ryegrass, Italian [9, 18]: 80
Ryegrass, Italian plant response rating [9, 19]: 100
Plant response rating, Corn ([10]; 125 g ai/ha): 0
Plant response rating, Corn [10, 17]: 20
Plant response rating, Wheat ([11]; 125 g ai/ha): 20
Plant response rating, Wheat [11, 17]: 60
Plant response rating, Ragweed [12, 18]: 60
Ragweed plant response rating [12, 19]: 80
Plant response rating, Foxtail, Giant ([13]; 125 g ai/ha): 10
Plant response rating, Foxtail, Giant [13, 17]: 0
Plant response rating, Ragweed ([14]; 125 g ai/ha): 40
Plant response rating, Ragweed [14, 17]: 80
Plant response rating, Pigweed ([15]; 125 g ai/ha): 60
Plant response rating, Pigweed [15, 17]: 80
Plant response rating, Barnyardgrass [16, 18]: 90
Barnyardgrass plant response rating [16, 19]: 100

COc1cc(Cl)c(NS(=O)(=O)C(F)(F)F)cc1C(=O)N1CCOCC1 [Compound 258]
Plant response rating, Blackgrass [1, 20]: 50
Plant response rating, Pigweed ([2]; 1000 g ai/ha): 100
Plant response rating, Kochia [3, 20]: 90
Plant response rating, Kochia ([4]; 1000 g ai/ha): 90
Plant response rating, Barnyardgrass [5, 20]: 70
Plant response rating, Foxtail, Giant ([6]; 1000 g ai/ha): 90
Plant response rating, Ryegrass, Italian [7, 20]: 70
Plant response rating, Galium [8, 20]: 80
Plant response rating, Ryegrass, Italian ([9]; 1000 g ai/ha): 70
Plant response rating, Corn [10, 20]: 10
Plant response rating, Wheat [11, 20]: 30
Plant response rating, Ragweed ([12]; 1000 g ai/ha): 90
Plant response rating, Foxtail, Giant [13, 20]: 50
Plant response rating, Ragweed [14, 20]: 80
Plant response rating, Pigweed [15, 20]: 80
Plant response rating, Barnyardgrass ([16]; 1000 g ai/ha): 80

Cc1ccc(C(=O)N2CCCCC2)cc1NS(=O)(=O)C(F)(F)F [Compound 259]
Plant response rating, Blackgrass [1, 20]: 50
Plant response rating, Pigweed ([2]; 1000 g ai/ha): 80
Plant response rating, Kochia [3, 20]: 40
Plant response rating, Kochia ([4]; 1000 g ai/ha): 40
Plant response rating, Barnyardgrass [5, 20]: 0
Plant response rating, Foxtail, Giant ([6]; 1000 g ai/ha): 90
Plant response rating, Ryegrass, Italian [7, 20]: 10
Plant response rating, Galium [8, 20]: 60
Plant response rating, Ryegrass, Italian ([9]; 1000 g ai/ha): 80
Plant response rating, Corn [10, 20]: 10
Plant response rating, Wheat [11, 20]: 0
Plant response rating, Ragweed ([12]; 1000 g ai/ha): 70
Plant response rating, Foxtail, Giant [13, 20]: 0
Plant response rating, Ragweed [14, 20]: 10
Plant response rating, Pigweed [15, 20]: 40
Plant response rating, Barnyardgrass ([16]; 1000 g ai/ha): 90

Cc1cc(C)c(C(=O)N2CCC(C(C)(C)C)CC2)cc1NS(=O)(=O)C(F)(F)F [Compound 261]
Plant response rating, Blackgrass [1, 20]: 0
Plant response rating, Pigweed ([2]; 1000 g ai/ha): 20
Plant response rating, Kochia [3, 20]: 0
Plant response rating, Kochia ([4]; 1000 g ai/ha): 0
Plant response rating, Barnyardgrass [5, 20]: 0
Plant response rating, Foxtail, Giant ([6]; 1000 g ai/ha): 90
Plant response rating, Ryegrass, Italian [7, 20]: 20
Plant response rating, Galium [8, 20]: 50
Plant response rating, Ryegrass, Italian ([9]; 1000 g ai/ha): 60
Plant response rating, Corn [10, 20]: 10
Plant response rating, Wheat [11, 20]: 0
Plant response rating, Ragweed ([12]; 1000 g ai/ha): 0
Plant response rating, Foxtail, Giant [13, 20]: 0
Plant response rating, Ragweed [14, 20]: 0
Plant response rating, Pigweed [15, 20]: 30
Plant response rating, Barnyardgrass ([16]; 1000 g ai/ha): 60

Cc1ccc(C(=O)N2CCC(C(C)(C)C)CC2)cc1NS(=O)(=O)C(F)(F)F [Compound 262]
Plant response rating, Blackgrass [1, 20]: 20
Plant response rating, Pigweed ([2]; 1000 g ai/ha): 0
Plant response rating, Kochia [3, 20]: 0
Plant response rating, Kochia ([4]; 1000 g ai/ha): 0
Plant response rating, Barnyardgrass [5, 20]: 0
Plant response rating, Foxtail, Giant ([6]; 1000 g ai/ha): 70
Plant response rating, Ryegrass, Italian [7, 20]: 20
Plant response rating, Galium [8, 20]: 40
Plant response rating, Ryegrass, Italian ([9]; 1000 g ai/ha): 20
Plant response rating, Corn [10, 20]: 0
Plant response rating, Wheat [11, 20]: 0
Plant response rating, Ragweed ([12]; 1000 g ai/ha): 0
Plant response rating, Foxtail, Giant [13, 20]: 0
Plant response rating, Ragweed [14, 20]: 0
Plant response rating, Pigweed [15, 20]: 20
Plant response rating, Barnyardgrass ([16]; 1000 g ai/ha): 20
